Source: ChEMBL document CHEMBL1137072, “Peptide deformylase inhibitors with activity against respiratory tract pathogens” (Bioorg Med Chem Lett, 2004)
Converted amounts (≈) assume the structure as drawn. “And” between values parts separate entries of the source, which are not always exact repeats. Equal entries are not always repeated.

Columns and labels:
Escherichia coli = experiment: Minimum inhibitory concentration required for primary screening against in-house strain of Escherichia coli tested in vitro; assay type: functional
Staphylococcus capitis = experiment: Minimum inhibitory concentration required for primary screening against in-house strain of Staphylococcus capitis tested in vitro; assay type: functional
Peptide deformylase = molecular target: T1, Peptide deformylase (Escherichia coli, UniProt Q9JN24); experiment: Inhibitory activity against Escherichia coli peptide deformylase (PDF) Nickel containing enzyme
T1 sequence (Q9JN24 whole entry): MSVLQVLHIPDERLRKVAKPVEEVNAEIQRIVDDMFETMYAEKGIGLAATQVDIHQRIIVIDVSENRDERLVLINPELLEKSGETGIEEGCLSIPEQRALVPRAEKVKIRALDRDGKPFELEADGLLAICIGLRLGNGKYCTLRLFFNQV

Streptococcus pneumoniae [1] = experiment: Minimum inhibitory concentration required for primary screening against in-house strain of Streptococcus pneumoniae tested in vitro; Range- 0.25-0.5; assay type: functional
Haemophilus influenzae [2] = experiment: Minimum inhibitory concentration required for primary screening against in-house strain of Haemophilus influenzae tested in vitro; Range- 0.5-4; assay type: functional
Moraxella catarrhalis [3] = experiment: Minimum inhibitory concentration required for primary screening against in-house strain of Moraxella catarrhalis tested in vitro; Range = 0.125-0.25; assay type: functional
Moraxella catarrhalis [4] = experiment: Minimum inhibitory concentration required for primary screening against in-house strain of Moraxella catarrhalis tested in vitro; assay type: functional
Streptococcus pneumoniae [5] = experiment: Minimum inhibitory concentration required for primary screening against in-house strain of Streptococcus pneumoniae tested in vitro; assay type: functional
Haemophilus influenzae [6] = experiment: Minimum inhibitory concentration required for primary screening against in-house strain of Haemophilus influenzae tested in vitro; Range-0.125-2; assay type: functional
Streptococcus pneumoniae [7] = experiment: Minimum inhibitory concentration required for primary screening against in-house strain of Streptococcus pneumoniae tested in vitro; Range- 0.5-1; assay type: functional
Streptococcus pneumoniae [8] = experiment: Minimum inhibitory concentration required for primary screening against in-house strain of Streptococcus pneumoniae tested in vitro; Range-0.008-2; assay type: functional
Haemophilus influenzae [9] = experiment: Minimum inhibitory concentration required for primary screening against in-house strain of Haemophilus influenzae tested in vitro; Range- 0.5-1; assay type: functional
Haemophilus influenzae [10] = experiment: Minimum inhibitory concentration required for primary screening against in-house strain of Haemophilus influenzae tested in vitro; Range- 0.06->/=16; assay type: functional
Moraxella catarrhalis [11] = experiment: Minimum inhibitory concentration required for primary screening against in-house strain of Moraxella catarrhalis tested in vitro; Range- 0.015-0.12; assay type: functional
Streptococcus pneumoniae [12] = experiment: Minimum inhibitory concentration required for primary screening against in-house strain of Streptococcus pneumoniae tested in vitro; Range- 0.25-2; assay type: functional
Haemophilus influenzae [13] = experiment: microbe, parasite or virus in culture
Description: Minimum inhibitory concentration required for primary screening against in-house strain of Haemophilus influenzae tested in vitro; Range- 0.004-1

Moraxella catarrhalis [14] = experiment: microbe, parasite or virus in culture
Streptococcus pneumoniae [15] = experiment: microbe, parasite or virus in culture
Description: Minimum inhibitory concentration required for primary screening against in-house strain of Streptococcus pneumoniae tested in vitro; Range- 0.2-128

Haemophilus influenzae [16] = experiment: Minimum inhibitory concentration required for primary screening against in-house strain of Haemophilus influenzae tested in vitro; Range- 0.25-2; assay type: functional
Haemophilus influenzae [17] = experiment: Minimum inhibitory concentration required for primary screening against in-house strain of Haemophilus influenzae tested in vitro; Range- 0.125-4; assay type: functional
Streptococcus pneumoniae [18] = experiment: Minimum inhibitory concentration required for primary screening against in-house strain of Streptococcus pneumoniae tested in vitro; Range- 0.25-1; assay type: functional
Haemophilus influenzae [19] = experiment: Minimum inhibitory concentration required for primary screening against in-house strain of Haemophilus influenzae tested in vitro; Range- 2-4; assay type: functional
Moraxella catarrhalis [20] = experiment: Minimum inhibitory concentration required for primary screening against in-house strain of Moraxella catarrhalis tested in vitro; Range- 0.125-0.25; assay type: functional
Haemophilus influenzae [21] = experiment: Minimum inhibitory concentration required for primary screening against in-house strain of Haemophilus influenzae tested in vitro; Range- 0.5-2; assay type: functional
Streptococcus pneumoniae [22] = experiment: Minimum inhibitory concentration required for primary screening against in-house strain of Streptococcus pneumoniae tested in vitro; Range- 0.25-0.5
Streptococcus pneumoniae [23] = experiment: Minimum inhibitory concentration required for primary screening against in-house strain of Streptococcus pneumoniae tested in vitro; Range- <0.125-0.25; assay type: functional
Moraxella catarrhalis [24] = experiment: Minimum inhibitory concentration required for primary screening against in-house strain of Moraxella catarrhalis tested in vitro; Range = 0.015-0.12; assay type: functional
Streptococcus pneumoniae [25] = experiment: Minimum inhibitory concentration required for primary screening against in-house strain of Streptococcus pneumoniae tested in vitro; Range- 2->8; assay type: functional
Haemophilus influenzae [26] = experiment: Minimum inhibitory concentration required for primary screening against in-house strain of Haemophilus influenzae tested in vitro; Range- 0.06-8; assay type: functional

What does the source list for `CCCC[C@H](CN(O)C=O)C(=O)N[C@H](C(=O)c1ccccc1)C(C)(C)C`?
MIC (Escherichia coli): 12.5 µM (≈ 4.53 µg/mL); MIC (Staphylococcus capitis): 12.5 µM (≈ 4.53 µg/mL)

Which IC50 (Peptide deformylase) does the source give for `CCCC[C@H](CN(O)C=O)C(=O)N[C@H](C(=O)c1ccc(N2CCOCC2)cc1)C(C)(C)C` here?
Its IC50 is 5 nM.

Which MIC (Streptococcus pneumoniae [1]) does the source give for `CC(C)(C)[C@H](NC(=O)[C@H](CC1CCCC1)CN(O)C=O)C(=O)c1cc(F)c(F)cc1N1CCN(CCN2CCCC2)CC1` here?
The MIC was under 0.5 µg/mL.

What about the IC50 (Peptide deformylase) of the same compound?
The IC50 was 2 nM.

And the MIC (Haemophilus influenzae [2])?
Its MIC is under 4 µg/mL.

And the MIC (Moraxella catarrhalis [3])?
The MIC was under 0.25 µg/mL.

For `CC(C)(C)[C@H](NC(=O)[C@H](CC1CCCC1)CN(O)C=O)C(=O)c1ccc(N2CCOCC2)c(F)c1`, which MIC (Moraxella catarrhalis [4]) is on record?
Its MIC is under 0.125 µg/mL.

What about the IC50 (Peptide deformylase) of the same compound?
The IC50 was 0.6 nM.

What about the MIC (Haemophilus influenzae [2]) of the same compound?
The MIC was under 4 µg/mL.

And the MIC (Streptococcus pneumoniae [5])?
The MIC was 0.25 µg/mL (≈ 0.509 µM).

How did the MIC (Moraxella catarrhalis [4]) turn out when `CC(C)(C)[C@H](NC(=O)[C@H](CC1CCCC1)CN(O)C=O)C(=O)c1ccc(N2CCN(CCO)CC2)c(F)c1` was run?
Its MIC is under 0.125 µg/mL.

And the MIC (Haemophilus influenzae [6])?
Its MIC is under 2 µg/mL.

And the MIC (Streptococcus pneumoniae [7])?
The MIC was under 1 µg/mL.

How did the MIC90 (Streptococcus pneumoniae [8]) turn out when `CC1(C)S[C@@H]2[C@H](NC(=O)Cc3ccccc3)C(=O)N2[C@H]1C(=O)[O-].[Na+]` [PENICILLIN G SODIUM] was run?
Its MIC90 is 1 µg/mL.

`CCCC[C@H](CN(O)C=O)C(=O)N[C@H](C(=O)c1ccc(O)cc1)C(C)(C)C` was tested. Which IC50 (Peptide deformylase) did it give?
The IC50 was 8 nM.

What does the source list for `CC(C)(C)[C@H](NC(=O)[C@H](CC1CCCC1)CN(O)C=O)C(=O)c1ccc(N2CCOCC2)cc1`?
MIC (Escherichia coli): 12.5 µM (≈ 5.92 µg/mL); MIC (Haemophilus influenzae [9]): < 1 µg/mL; MIC (Moraxella catarrhalis [4]): 0.125 µg/mL (≈ 0.264 µM); MIC (Streptococcus pneumoniae [1]): < 0.5 µg/mL; MIC (Staphylococcus capitis): 1.5 µM (≈ 0.71 µg/mL); MIC90 (Haemophilus influenzae [10]): 4 µg/mL (≈ 8.45 µM); IC50 (Peptide deformylase): 6 nM and 2 nM; MIC90 (Moraxella catarrhalis [11]): 0.12 µg/mL (≈ 0.253 µM); MIC90 (Streptococcus pneumoniae [12]): < 2 µg/mL

`O=C(O)c1cn(C2CC2)c2cc(N3CCNCC3)c(F)cc2c1=O` [CIPROFLOXACIN] was tested. Which MIC90 (Haemophilus influenzae [13]) did it give?
The MIC90 was 0.015 µg/mL (≈ 0.0453 µM).

And the MIC90 (Moraxella catarrhalis [14])?
Its MIC90 is 0.06 µg/mL (≈ 0.181 µM).

What about the MIC90 (Streptococcus pneumoniae [15]) of the same compound?
The MIC90 was 8 µg/mL (≈ 24.1 µM).

`CC(C)(C)[C@H](NC(=O)[C@H](CC1CCCC1)CN(O)C=O)C(=O)c1cc(F)c(F)cc1N1CCC(O)CC1` was tested. Which MIC (Moraxella catarrhalis [4]) did it give?
The MIC was under 0.125 µg/mL.

And the MIC (Streptococcus pneumoniae [1])?
The MIC was under 0.5 µg/mL.

And the IC50 (Peptide deformylase)?
The IC50 was 1 nM.

And the MIC (Haemophilus influenzae [16])?
The MIC was under 2 µg/mL.

For `CCCC[C@H](CN(O)C=O)C(=O)N[C@H](C(=O)c1ccc(OC)cc1)C(C)(C)C`, which IC50 (Peptide deformylase) is on record?
Its IC50 is 1 nM.

What does the source list for `CC(C)(C)[C@H](NC(=O)[C@H](CC1CCCC1)CN(O)C=O)C(=O)c1ccc(N2CCN(CCN3CCOCC3)CC2)c(F)c1`?
MIC (Haemophilus influenzae [17]): < 4 µg/mL; MIC (Moraxella catarrhalis [4]): 0.125 µg/mL (≈ 0.207 µM); MIC (Streptococcus pneumoniae [1]): < 0.5 µg/mL; IC50 (Peptide deformylase): 6 nM

For `CC(C)(C)[C@H](NC(=O)[C@H](CC1CCCC1)CN(O)C=O)C(=O)c1cc(F)c(F)cc1N1CCN(CCO)CC1`, which MIC (Moraxella catarrhalis [4]) is on record?
Its MIC is under 0.125 µg/mL.

And the IC50 (Peptide deformylase)?
Its IC50 is 2 nM.

What about the MIC (Streptococcus pneumoniae [7]) of the same compound?
Its MIC is under 1 µg/mL.

What about the MIC (Haemophilus influenzae [16]) of the same compound?
The MIC was under 2 µg/mL.

`CC(C)(C)[C@H](NC(=O)[C@H](CC1CCCC1)CN(O)C=O)C(=O)c1cc(F)c(F)cc1N1CCN(CCN2CCOCC2)CC1` was tested. Which MIC (Streptococcus pneumoniae [18]) did it give?
The MIC was under 1 µg/mL.

And the MIC (Haemophilus influenzae [19])?
Its MIC is under 4 µg/mL.

What about the MIC (Moraxella catarrhalis [20]) of the same compound?
The MIC was under 0.25 µg/mL.

And the IC50 (Peptide deformylase)?
The IC50 was 2 nM.

With `CC(C)(C)[C@H](NC(=O)[C@H](CC1CCCC1)CN(O)C=O)C(=O)c1ccc(N2CCN(CCN3CCCC3)CC2)cc1` as the compound, how does the MIC (Haemophilus influenzae [21]) read?
The MIC was under 2 µg/mL.

And the MIC (Moraxella catarrhalis [20])?
The MIC was under 0.25 µg/mL.

What about the IC50 (Peptide deformylase) of the same compound?
Its IC50 is 3 nM.

And the MIC (Streptococcus pneumoniae [22])?
The MIC was under 0.5 µg/mL.

With `CCCC[C@H](CN(O)C=O)C(=O)N[C@H](C(=O)c1ccc(N)cc1)C(C)(C)C` as the compound, how does the MIC (Staphylococcus capitis) read?
Its MIC is 12 µM (≈ 4.53 µg/mL).

And the IC50 (Peptide deformylase)?
The IC50 was 8 nM.

For `CCCC[C@H](CN(O)C=O)C(=O)N[C@H](C(=O)c1ccccn1)C(C)(C)C`, which IC50 (Peptide deformylase) is on record?
Its IC50 is 3 nM.

With `CCCC[C@H](CN(O)C=O)C(=O)N[C@H](C(=O)c1ccco1)C(C)(C)C` as the compound, how does the IC50 (Peptide deformylase) read?
The IC50 was 5 nM.

What does the source list for `CC(C)(C)[C@H](NC(=O)[C@H](CC1CCCC1)CN(O)C=O)C(=O)c1ccc(N2CCC[C@H]2CO)cc1`?
MIC (Moraxella catarrhalis [4]): < 0.125 µg/mL; IC50 (Peptide deformylase): 7 nM; MIC (Streptococcus pneumoniae [23]): < 0.25 µg/mL; MIC (Haemophilus influenzae [16]): < 2 µg/mL

Which MIC90 (Moraxella catarrhalis [24]) does the source give for `CCCC[C@H](CN(O)C=O)C(=O)N[C@H](C(=O)N(C)C)C(C)(C)C` here?
Its MIC90 is 0.12 µg/mL (≈ 0.364 µM).

What about the MIC90 (Streptococcus pneumoniae [25]) of the same compound?
The MIC90 was over 16 µg/mL.

And the MIC90 (Haemophilus influenzae [26])?
The MIC90 was 2 µg/mL (≈ 6.07 µM).
